{"source": "patent US8217189B2", "about": "“Chromenone potassium channel blockers and uses thereof” (Bionomics Limited, priority 2006, dated 2012)", "target": "T1, human Kv1.3 ion channel (Homo sapiens, UniProt P22001)", "T1 construct": "Human Jurkat cells (which endogenously express hKv1.3) were used in place of rat L929 cells; endogenous in cells; host or cells: human Jurkat cells", "T1 sequence (P22001 whole entry)": "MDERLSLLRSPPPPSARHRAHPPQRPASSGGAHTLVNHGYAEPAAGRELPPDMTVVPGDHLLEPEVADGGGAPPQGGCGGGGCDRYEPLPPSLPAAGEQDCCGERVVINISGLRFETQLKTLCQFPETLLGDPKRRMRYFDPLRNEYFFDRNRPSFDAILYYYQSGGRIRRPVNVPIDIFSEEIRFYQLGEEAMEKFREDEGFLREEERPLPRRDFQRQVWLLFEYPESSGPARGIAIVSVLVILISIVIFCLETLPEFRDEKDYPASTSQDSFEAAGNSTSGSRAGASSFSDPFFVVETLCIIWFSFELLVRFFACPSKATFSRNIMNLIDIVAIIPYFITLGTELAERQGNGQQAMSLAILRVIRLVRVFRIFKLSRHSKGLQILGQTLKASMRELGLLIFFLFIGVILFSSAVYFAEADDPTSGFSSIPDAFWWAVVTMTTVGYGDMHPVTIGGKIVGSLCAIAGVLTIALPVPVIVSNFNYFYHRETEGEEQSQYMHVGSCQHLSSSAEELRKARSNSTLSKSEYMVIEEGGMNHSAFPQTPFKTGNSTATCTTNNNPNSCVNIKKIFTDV", "experiment": "Inhibition of Kv1.3 currents, planar patch clamp in human Jurkat cells", "assay_type": "cell-based", "settings": "Jurkat cells endogenously expressing hKv1.3, averaged dose response data from 3 or more cells", "procedure": "Potency of compounds to inhibit the human Kv1.3 ion channel were determined as follows:\nEC50 values for inhibition of Kv1.3 currents were determined by the method according to Schmitz et al (2005) Molecular Pharmacology 68, 1254-1270 with the following differences:\n1. Human Jurkat cells (which endogenously express hKv1.3) were used in place of rat L929 cells.\n2. All electrophysiology was performed using planar patch clamp (Port-A-Patch, Nanion Technologies Gmbh, Munich) in contrast to conventional patch clamp.\n3. EC50 values shown were determined from averaged dose response data obtained from 3 or more cells.", "data": [{"smiles": "CSCc1cc(=O)c2c(C)c3ccoc3c(OCCCc3ccccc3)c2o1", "note": "[1 c)]", "values": [{"measurement": "EC50", "result": 30, "unit": "nM"}]}, {"smiles": "Cc1c2ccoc2c(OCCCc2ccc(F)cc2)c2oc(CN(C)C)cc(=O)c12", "note": "[6 c)]", "values": [{"measurement": "EC50", "result": 28, "unit": "nM"}]}, {"smiles": "COc1c2ccoc2c(OCCCc2ccccc2)c2oc(CN(C)C)cc(=O)c12", "note": "[7 c)]", "values": [{"measurement": "EC50", "result": 270, "unit": "nM"}]}, {"smiles": "Cc1c2ccoc2c(OCC[C@@H](C)c2ccccc2)c2oc(CN(C)C)cc(=O)c12", "note": "[8 d)]", "values": [{"measurement": "EC50", "result": 14, "unit": "nM"}]}, {"smiles": "Cc1c2ccoc2c(OCCCc2ccccc2)c2oc(CN(C)C)cc(=O)c12", "note": "[Example 2, 7-Dimethylaminomethyl-4-methyl-9-(3-phenylpropoxy)furo[3,2-g]chromen-5-one]", "values": [{"measurement": "EC50", "result": 29, "unit": "nM"}]}, {"smiles": "Cc1c2ccoc2c(OCCCc2ccccc2)c2oc(CN3CCOCC3)cc(=O)c12", "note": "[Example 3, 4-Methyl-7-(morpholin-4-ylmethyl)-9-(3-phenylpropoxy)furo[3,2-g]chromen-5-one]", "values": [{"measurement": "EC50", "result": 190, "unit": "nM"}]}, {"smiles": "CN(C)Cc1cc(=O)c2c(OCCCCOc3ccccc3)c3ccoc3cc2o1", "note": "[Example 5, 7-Dimethylaminomethyl-4-(4-phenoxybutoxy)-furo[3,2-g]chromen-5-one]", "values": [{"measurement": "EC50", "result": 1420, "unit": "nM"}]}, {"smiles": "Cc1c2ccoc2c(OCCCc2ccccc2)c2oc(CS(C)(=O)=O)cc(=O)c12", "note": "[Example 9, 7-Methanesulfonylmethyl-4-methyl-9-(phenyl-propoxy)-furo[3,2-g]chromen-5-one]", "values": [{"measurement": "EC50", "result": 200, "unit": "nM"}]}]}
